# pKd: −log10 of the molar value. Activity calls are given as the source filed them. Cut-off read from the data, not from the text of the source, for most assays here: actives have a measured Kd and inactives only a lower limit.
# Assays:
# [1] = target: T1, Dynamin-like GTPase OPA1, mitochondrial (Homo sapiens, UniProt O60313)
# T1 sequence (O60313 whole entry): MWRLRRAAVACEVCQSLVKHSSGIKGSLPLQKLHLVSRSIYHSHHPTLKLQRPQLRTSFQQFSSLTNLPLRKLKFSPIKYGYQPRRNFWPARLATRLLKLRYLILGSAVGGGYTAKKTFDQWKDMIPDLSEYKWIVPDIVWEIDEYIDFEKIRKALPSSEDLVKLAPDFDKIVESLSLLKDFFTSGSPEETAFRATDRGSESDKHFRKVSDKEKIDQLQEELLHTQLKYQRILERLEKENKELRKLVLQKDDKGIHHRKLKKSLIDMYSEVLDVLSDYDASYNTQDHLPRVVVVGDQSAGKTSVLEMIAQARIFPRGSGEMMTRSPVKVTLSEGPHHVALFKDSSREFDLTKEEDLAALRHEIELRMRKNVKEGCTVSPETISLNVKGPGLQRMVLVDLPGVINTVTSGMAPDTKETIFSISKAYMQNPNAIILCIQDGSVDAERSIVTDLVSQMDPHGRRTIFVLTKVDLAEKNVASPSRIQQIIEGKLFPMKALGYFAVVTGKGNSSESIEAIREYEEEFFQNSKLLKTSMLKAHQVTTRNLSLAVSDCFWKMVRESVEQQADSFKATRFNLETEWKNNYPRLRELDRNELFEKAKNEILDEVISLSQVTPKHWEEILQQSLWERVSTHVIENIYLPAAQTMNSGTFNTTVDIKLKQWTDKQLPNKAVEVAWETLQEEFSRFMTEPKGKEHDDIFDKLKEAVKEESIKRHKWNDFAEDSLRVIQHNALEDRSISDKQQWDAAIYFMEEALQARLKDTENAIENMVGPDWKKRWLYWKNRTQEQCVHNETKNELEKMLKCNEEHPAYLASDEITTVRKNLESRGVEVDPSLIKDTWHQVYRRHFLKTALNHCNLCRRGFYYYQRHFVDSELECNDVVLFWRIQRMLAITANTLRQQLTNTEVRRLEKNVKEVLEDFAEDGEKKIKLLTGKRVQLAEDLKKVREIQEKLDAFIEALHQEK
# [2] = target: Dual specificity mitogen-activated protein kinase kinase 2 (Homo sapiens, UniProt P36507)
# [3] = target: Bone morphogenetic protein receptor type-1B (Homo sapiens, UniProt O00238)
# [4] = target: T2, Inhibitor of nuclear factor kappa-B kinase subunit epsilon (Homo sapiens, UniProt Q14164)
# T2 sequence (Q14164 whole entry): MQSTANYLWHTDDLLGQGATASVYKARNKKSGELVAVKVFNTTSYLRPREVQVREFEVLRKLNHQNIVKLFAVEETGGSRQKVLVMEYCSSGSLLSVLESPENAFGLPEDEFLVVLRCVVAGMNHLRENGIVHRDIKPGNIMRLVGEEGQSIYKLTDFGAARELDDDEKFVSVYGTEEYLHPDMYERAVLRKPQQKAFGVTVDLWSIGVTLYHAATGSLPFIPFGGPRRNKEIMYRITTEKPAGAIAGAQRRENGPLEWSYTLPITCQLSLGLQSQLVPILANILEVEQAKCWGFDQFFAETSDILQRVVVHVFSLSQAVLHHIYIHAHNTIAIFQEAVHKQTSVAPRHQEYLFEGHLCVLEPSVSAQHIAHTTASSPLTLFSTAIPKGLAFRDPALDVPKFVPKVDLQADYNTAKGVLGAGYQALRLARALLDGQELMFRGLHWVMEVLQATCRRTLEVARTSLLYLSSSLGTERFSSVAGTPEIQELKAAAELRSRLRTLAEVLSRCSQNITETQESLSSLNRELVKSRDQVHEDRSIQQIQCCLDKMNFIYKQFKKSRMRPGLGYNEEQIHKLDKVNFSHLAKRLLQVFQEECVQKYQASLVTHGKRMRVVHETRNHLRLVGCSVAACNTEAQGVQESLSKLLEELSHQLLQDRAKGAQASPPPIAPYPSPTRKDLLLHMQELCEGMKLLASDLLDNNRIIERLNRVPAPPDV
# [5] = target: Serine/threonine-protein kinase MRCK alpha (Homo sapiens, UniProt Q5VT25)
# [6] = target: T3, Serine/threonine-protein kinase TAO1 (Homo sapiens, UniProt Q7L7X3)
# T3 sequence (Q7L7X3 whole entry): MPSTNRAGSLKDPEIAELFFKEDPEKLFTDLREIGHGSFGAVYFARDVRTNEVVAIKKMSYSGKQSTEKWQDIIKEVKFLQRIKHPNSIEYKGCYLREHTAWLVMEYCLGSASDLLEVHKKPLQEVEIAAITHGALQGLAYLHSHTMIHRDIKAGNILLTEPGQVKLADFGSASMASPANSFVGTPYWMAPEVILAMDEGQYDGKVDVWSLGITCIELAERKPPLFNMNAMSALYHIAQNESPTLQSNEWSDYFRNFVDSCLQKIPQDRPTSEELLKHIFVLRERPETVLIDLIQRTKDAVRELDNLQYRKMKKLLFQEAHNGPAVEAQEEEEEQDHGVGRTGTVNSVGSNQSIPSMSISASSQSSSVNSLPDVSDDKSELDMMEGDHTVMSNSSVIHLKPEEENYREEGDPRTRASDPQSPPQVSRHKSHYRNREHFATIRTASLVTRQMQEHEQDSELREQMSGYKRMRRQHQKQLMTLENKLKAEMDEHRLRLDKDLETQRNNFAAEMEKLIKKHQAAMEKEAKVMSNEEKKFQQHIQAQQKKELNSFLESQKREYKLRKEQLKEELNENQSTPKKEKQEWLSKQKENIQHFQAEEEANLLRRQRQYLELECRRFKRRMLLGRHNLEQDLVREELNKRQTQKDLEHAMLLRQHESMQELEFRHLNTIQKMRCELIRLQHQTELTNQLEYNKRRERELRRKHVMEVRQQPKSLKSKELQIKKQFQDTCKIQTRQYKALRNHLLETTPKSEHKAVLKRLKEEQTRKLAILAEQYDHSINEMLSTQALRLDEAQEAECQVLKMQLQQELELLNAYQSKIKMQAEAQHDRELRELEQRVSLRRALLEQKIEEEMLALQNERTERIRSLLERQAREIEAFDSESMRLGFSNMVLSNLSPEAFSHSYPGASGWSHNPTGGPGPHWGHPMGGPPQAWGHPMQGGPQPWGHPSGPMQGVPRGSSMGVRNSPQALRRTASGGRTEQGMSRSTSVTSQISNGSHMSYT
# Note: in the data inactive means no Kd found up to 30 µM.
# Chain of Serine/threonine-protein kinase MRCK alpha (Q5VT25 whole entry): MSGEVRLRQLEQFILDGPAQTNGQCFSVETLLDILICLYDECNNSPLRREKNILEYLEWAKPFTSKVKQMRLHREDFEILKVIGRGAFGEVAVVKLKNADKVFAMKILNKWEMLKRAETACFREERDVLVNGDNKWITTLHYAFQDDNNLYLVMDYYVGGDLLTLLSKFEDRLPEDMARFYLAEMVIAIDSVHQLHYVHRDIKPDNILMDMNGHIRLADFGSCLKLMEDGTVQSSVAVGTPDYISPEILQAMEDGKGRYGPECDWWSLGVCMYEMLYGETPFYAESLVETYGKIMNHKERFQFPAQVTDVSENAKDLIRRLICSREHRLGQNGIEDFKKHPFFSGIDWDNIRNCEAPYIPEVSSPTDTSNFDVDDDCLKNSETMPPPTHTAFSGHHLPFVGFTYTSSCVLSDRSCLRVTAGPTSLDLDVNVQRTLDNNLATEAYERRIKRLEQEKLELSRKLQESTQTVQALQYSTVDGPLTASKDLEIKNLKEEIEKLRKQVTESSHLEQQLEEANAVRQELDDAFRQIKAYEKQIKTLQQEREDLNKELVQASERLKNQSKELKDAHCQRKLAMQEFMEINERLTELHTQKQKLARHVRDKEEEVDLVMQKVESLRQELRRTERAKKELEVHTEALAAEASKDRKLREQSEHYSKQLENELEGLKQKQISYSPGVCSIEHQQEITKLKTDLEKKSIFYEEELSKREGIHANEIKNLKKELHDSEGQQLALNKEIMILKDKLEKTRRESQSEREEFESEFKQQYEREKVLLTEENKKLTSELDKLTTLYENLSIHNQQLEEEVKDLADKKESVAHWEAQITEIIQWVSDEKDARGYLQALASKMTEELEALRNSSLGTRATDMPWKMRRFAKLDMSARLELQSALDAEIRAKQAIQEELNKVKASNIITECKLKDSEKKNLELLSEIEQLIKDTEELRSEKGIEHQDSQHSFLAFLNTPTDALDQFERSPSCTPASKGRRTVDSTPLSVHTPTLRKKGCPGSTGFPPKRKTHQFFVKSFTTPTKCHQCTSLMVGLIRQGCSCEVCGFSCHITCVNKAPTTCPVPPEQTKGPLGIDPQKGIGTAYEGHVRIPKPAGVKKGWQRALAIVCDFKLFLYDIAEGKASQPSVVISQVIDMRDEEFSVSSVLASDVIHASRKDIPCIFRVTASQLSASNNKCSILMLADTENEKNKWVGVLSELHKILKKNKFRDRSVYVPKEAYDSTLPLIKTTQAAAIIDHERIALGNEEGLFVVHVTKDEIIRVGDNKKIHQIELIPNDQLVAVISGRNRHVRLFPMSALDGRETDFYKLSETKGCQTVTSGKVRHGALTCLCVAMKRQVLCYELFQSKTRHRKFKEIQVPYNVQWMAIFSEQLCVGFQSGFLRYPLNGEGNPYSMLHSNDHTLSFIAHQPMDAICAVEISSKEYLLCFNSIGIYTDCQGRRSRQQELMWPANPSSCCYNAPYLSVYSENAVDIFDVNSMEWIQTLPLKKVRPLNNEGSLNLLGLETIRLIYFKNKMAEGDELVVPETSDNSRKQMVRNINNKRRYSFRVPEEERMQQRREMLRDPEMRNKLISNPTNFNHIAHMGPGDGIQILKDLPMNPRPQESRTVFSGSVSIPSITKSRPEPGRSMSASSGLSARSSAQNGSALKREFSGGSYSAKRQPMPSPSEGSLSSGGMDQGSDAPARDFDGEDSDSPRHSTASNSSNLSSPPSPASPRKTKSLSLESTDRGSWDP
# Chain of Dual specificity mitogen-activated protein kinase kinase 2 (P36507 whole entry): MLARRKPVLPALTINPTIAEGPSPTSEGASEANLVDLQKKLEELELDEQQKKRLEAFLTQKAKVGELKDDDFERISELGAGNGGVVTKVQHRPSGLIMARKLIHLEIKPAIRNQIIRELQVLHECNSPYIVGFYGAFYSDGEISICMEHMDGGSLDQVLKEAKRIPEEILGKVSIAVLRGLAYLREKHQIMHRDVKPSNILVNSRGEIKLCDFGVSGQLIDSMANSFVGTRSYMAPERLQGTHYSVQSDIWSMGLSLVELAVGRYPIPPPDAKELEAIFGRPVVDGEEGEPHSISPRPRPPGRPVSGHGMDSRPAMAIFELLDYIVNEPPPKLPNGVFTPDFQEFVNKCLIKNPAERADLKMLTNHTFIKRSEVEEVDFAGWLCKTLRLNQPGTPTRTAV
# Chain of Bone morphogenetic protein receptor type-1B (O00238 whole entry): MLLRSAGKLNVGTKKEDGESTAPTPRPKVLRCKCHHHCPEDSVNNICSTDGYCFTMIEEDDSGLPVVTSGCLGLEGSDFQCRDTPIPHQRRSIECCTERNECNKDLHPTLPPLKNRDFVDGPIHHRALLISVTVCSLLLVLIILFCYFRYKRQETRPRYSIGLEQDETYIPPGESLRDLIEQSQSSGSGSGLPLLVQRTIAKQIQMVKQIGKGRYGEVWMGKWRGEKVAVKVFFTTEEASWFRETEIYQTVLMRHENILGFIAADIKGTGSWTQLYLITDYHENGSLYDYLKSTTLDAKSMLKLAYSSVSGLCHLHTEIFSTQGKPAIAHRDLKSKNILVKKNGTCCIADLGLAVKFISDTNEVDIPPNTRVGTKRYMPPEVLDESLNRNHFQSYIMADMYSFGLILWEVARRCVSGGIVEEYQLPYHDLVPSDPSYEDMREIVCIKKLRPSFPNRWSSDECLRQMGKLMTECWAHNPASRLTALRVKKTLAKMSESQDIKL
Compound,Kd [1],Kd [2],Kd [3],Kd [4],Kd [5],Kd [6],pKd [2]
C[C@@H](Oc1cc(C(=O)Nc2ccc(C(=O)N3CCN(C)CC3)cc2)nnc1N)c1c(Cl)ccc(F)c1Cl,> 30 µM (inactive),> 30 µM (inactive),> 30 µM (inactive),> 30 µM (inactive),> 30 µM (inactive),> 30 µM (inactive),
C[C@H]1CNCCCN1S(=O)(=O)c1cccc2cncc(F)c12,> 30 µM (inactive),> 30 µM (inactive),> 30 µM (inactive),> 30 µM (inactive),,> 30 µM (inactive),
CC(=O)c1cnc2ccc(-c3cc(Cl)c(O)c(Cl)c3)nc2c1N[C@H]1CC[C@H](CN(C)C)CC1,> 30 µM (inactive),> 30 µM (inactive),0.002 µM (active),,> 30 µM (inactive),0.017 µM (active),
CCNC(=O)C#Cc1ccc2c(c1)NC(=O)/C2=C(\Nc1ccc(CN(C)C)cc1)c1ccccc1,> 30 µM (inactive),,> 30 µM (inactive),0.408 µM (active),> 30 µM (inactive),> 30 µM (inactive),
C=CC(=O)N1CCC[C@H](n2c(=O)n(-c3ccc(Oc4ccccc4)cc3)c3c(N)ncnc32)C1,> 30 µM (inactive),> 30 µM (inactive),> 30 µM (inactive),> 30 µM (inactive),> 30 µM (inactive),> 30 µM (inactive),
Cc1nc2cc(-c3nn(C(C)C)c4ncnc(N)c34)ccc2o1,> 30 µM (inactive),1.92 µM (active),0.123 µM (active),> 30 µM (inactive),> 30 µM (inactive),1.09 µM (active),
COCc1c(-c2ccc(NC(=O)Nc3cc(C(F)(F)F)ccc3F)c(F)c2)c2c(N)ncnn2c1CN1CCOCC1,> 30 µM (inactive),> 30 µM (inactive),> 30 µM (inactive),> 30 µM (inactive),> 30 µM (inactive),> 30 µM (inactive),
COc1cc(Nc2ncc3c(n2)-c2ccc(Cl)cc2C(c2c(F)cccc2OC)=NC3)ccc1C(=O)O [ALISERTIB],> 30 µM (inactive),,> 30 µM (inactive),,,,
Cc1nc(NC(=O)N2CCC[C@H]2C(N)=O)sc1-c1ccnc(C(C)(C)C(F)(F)F)c1 [ALPELISIB],> 30 µM (inactive),> 30 µM (inactive),> 30 µM (inactive),> 30 µM (inactive),> 30 µM (inactive),> 30 µM (inactive),
CNC(=O)c1ccccc1Sc1ccc2c(/C=C/c3ccccn3)n[nH]c2c1 [AXITINIB],> 30 µM (inactive),,,,,,
CC(C)(C)c1nc(-c2cccc(NS(=O)(=O)c3c(F)cccc3F)c2F)c(-c2ccnc(N)n2)s1 [DABRAFENIB],> 30 µM (inactive),,> 30 µM (inactive),> 30 µM (inactive),> 30 µM (inactive),,
Cn1cc(C2=C(c3cn(C4CCN(Cc5ccccn5)CC4)c4ccccc34)C(=O)NC2=O)c2ccccc21 [ENZASTAURIN],> 30 µM (inactive),,,,,,
O=C(Nc1cc(C(F)(F)F)cc(C(F)(F)F)c1)c1cc(Cl)ccc1O [IMD-0354],> 30 µM (inactive),> 30 µM (inactive),> 30 µM (inactive),> 30 µM (inactive),,> 30 µM (inactive),
CNC(=O)c1nn(C)c2c1C(C)(C)Cc1cnc(Nc3ccc(N4CCN(C)CC4)cc3)nc1-2 [MILCICLIB],> 30 µM (inactive),> 30 µM (inactive),> 30 µM (inactive),2.97 µM (active),> 30 µM (inactive),,
Cc1[nH]c(/C=C2\C(=O)Nc3ccccc32)c(C)c1CCC(=O)O [ORANTINIB],> 30 µM (inactive),3.23 µM (active),> 30 µM (inactive),,,,
CCOc1cc2ncc(C#N)c(Nc3ccc(F)c(Cl)c3)c2cc1NC(=O)/C=C/CN(C)C [PELITINIB],> 30 µM (inactive),,> 30 µM (inactive),> 30 µM (inactive),> 30 µM (inactive),> 30 µM (inactive),
CC(=O)NCC(=O)N1[C@@H]2CC[C@H]1c1ccc(Nc3ncc(C(F)(F)F)c(NC4CCC4)n3)cc12 [PF-03814735],> 30 µM (inactive),,> 30 µM (inactive),,,,
N#CC[C@H](C1CCCC1)n1cc(-c2ncnc3[nH]ccc23)cn1 [RUXOLITINIB],> 30 µM (inactive),,,,,,

# The next lines start with the values.
Kd [1],Kd [2],Kd [3],Kd [4],Kd [5],Kd [6],pKd [2],Compound
> 30 µM (inactive),5.76 µM (active),1.44 µM (active),> 30 µM (inactive),> 30 µM (inactive),> 30 µM (inactive),,Nc1ncnc2c1c(-c1cccc(OCc3ccccc3)c1)cn2[C@H]1C[C@@H](CN2CCC2)C1 [AEW-541]
> 30 µM (inactive),3.49 µM (active),> 30 µM (inactive),> 30 µM (inactive),> 30 µM (inactive),1.9 µM (active),,Cc1csc(-c2nnc(Nc3ccc(Oc4ncccc4-c4ccnc(N)n4)cc3)c3ccccc23)c1 [AMG-900]
> 30 µM (inactive),,> 30 µM (inactive),> 30 µM (inactive),> 30 µM (inactive),> 30 µM (inactive),,Cc1cc(C(=O)NOCCO)c(Nc2ccc(I)cc2F)n(C)c1=O [AZD-8330]
> 30 µM (inactive),,,,,,,C[C@@H](Oc1cc(-n2cnc3ccc(CN4CCN(C)CC4)cc32)sc1C(N)=O)c1ccccc1C(F)(F)F [GSK-461364]
> 30 µM (inactive),> 30 µM (inactive),,,> 30 µM (inactive),,,CCn1cc(-c2ccnc3[nH]c(-c4cccc(CN(C)C)c4)cc23)c(-c2ccc(NC(=O)N(C)C)cc2)n1 [GSK-1070916]
> 30 µM (inactive),,> 30 µM (inactive),,,,,NC(=O)c1c(OCc2c(F)cc(Br)cc2F)nsc1NC(=O)NCCCCN1CCCC1 [OSI-632]
> 30 µM (inactive),,,,,,,O=C(NOCCO)c1cc(CN2OCCCC2=O)c(F)c(F)c1Nc1ccc(I)cc1F [RO-4987655]
> 30 µM (inactive),,,1.39 µM (active),> 30 µM (inactive),> 30 µM (inactive),5.38,CC(C)c1cc(CNc2nc(Nc3cc(C4CC4)[nH]n3)cc(N3CCN(C)CC3)n2)on1 [XL-228]
